# Tests used:
# [1] = system: six human cancer cell lines; assay: MTT cytotoxicity assay, all cell lines assayed (summary statements); type: cell-based; conditions: Homo sapiens; range over the six cell lines, 72 h
# Source text: U-937, HL-60, MOLT-3, NALM-6, and SK-MEL-1 cells were from DSMZ (German Collection of Microorganisms and Cell Cultures, Braunschweig, Germany). U-937/Bcl-2 cells were kindly provided by Dr. Jacqueline Bréard (INSERM U749, Faculté de Pharmacie Paris-Sud, Châtenay-Malabry, France). The U-937 is a pro-monocytic, human promyelocytic leukemia cell line that was isolated from a histiocytic lymphoma. HL-60 is a human acute myeloid leukemia cell line. MOLT-3 is a human acute lymphoblastic leukemia cell line. NALM-6 is a human B cell precursor leukemia. SK-MEL-1 is a human melanoma cell line growing singly or in clumps (occasional giant, polynucleated cell) in suspension. Cells were cultured in RPMI 1640 medium containing 10% (v/v) heat-inactivated fetal bovine serum, 100 μg/mL streptomycin, and 100 U/mL penicillin, incubated at 37 °C in a humidified atmosphere containing 5% CO2 as described. […] The cytotoxicity of the synthetic compounds was evaluated by colorimetric 3-(4,5-dimethyl-2-thiazolyl-)-2,5-diphenyl-2H-tetrazolium bromide (MTT) assay as previously described. […] Sodium dodecyl sulfate (10% w/v) in 0.05 M HCl was added to solubilize the reaction products and the absorbance was measured at 570 nm with a reference wavelength of […] using an ELISA reader (Bio-Rad, Hercules, CA, USA). […]
# [2] = system: caspases-3/7, -8, and -9 in U-937 cells; assay: Caspase activity in lysates of treated cells (colorimetric tetrapeptide substrates); type: cell-based, human; conditions: U-937, 10 µM, 24 h
# Protocol: Caspase activity was determined by measuring proteolytic cleavage of specific chromogenic substrates as previously described. Briefly, cells were treated with the specified guanidines for 24 h, harvested by centrifugation (1000× g for 5 min at 4 °C), washed twice with PBS, resuspended in lysis buffer (50 mM HEPES, pH 7.4, 0.1 mM EDTA, 1 mM dithiothreitol, and 0.1% Chaps), spun (17,000× g for 10 min at 4 °C) and the supernatants were normalized by protein concentration and used to determine enzyme activity. The net increase in absorbance at 405 nm after incubation at 37 °C was indicative of caspase activity. The colorimetric substrates were DEVD-pNA (for caspase-3 like protease activity), IETD-pNA (for caspase-8 activity), and LEHD-pNA (for caspase-9 activity).
# U-937 cells = assay: MTT cytotoxicity assay, U-937; type: cell-based; conditions: Homo sapiens, U-937, 72 h, means ± SEM
# Source text: (§1) U-937, HL-60, MOLT-3, NALM-6, and SK-MEL-1 cells were from DSMZ (German Collection of Microorganisms and Cell Cultures, Braunschweig, Germany). U-937/Bcl-2 cells were kindly provided by Dr. Jacqueline Bréard (INSERM U749, Faculté de Pharmacie Paris-Sud, Châtenay-Malabry, France). The U-937 is a pro-monocytic, human promyelocytic leukemia cell line that was isolated from a histiocytic lymphoma. HL-60 is a human acute myeloid leukemia cell line. MOLT-3 is a human acute lymphoblastic leukemia cell line. NALM-6 is a human B cell precursor leukemia. SK-MEL-1 is a human melanoma cell line growing singly or in clumps (occasional giant, polynucleated cell) in suspension. Cells were cultured in RPMI 1640 medium containing 10% (v/v) heat-inactivated fetal bovine serum, 100 μg/mL streptomycin, and 100 U/mL penicillin, incubated at 37 °C in a humidified atmosphere containing 5% CO2 as described. The doubling times of the cell lines were 24 h in HL-60, 30 h in U-937, U-937/Bcl-2, 40 h in MOLT-3 and NALM-6, and several days in SK-MEL-1 cells. Human peripheral blood mononuclear cells (PBMC) were isolated from heparin-anticoagulated blood of healthy volunteers by centrifugation with Ficoll-Paque Plus (GE Healthcare Bio-Sciences AB, Uppsala, Sweden). PBMC were also stimulated with phytohemagglutinin (2 µg/mL) for 48 h before the experimental treatment. The trypan blue exclusion method was used for counting the cells by a hemocytometer with 95% viability in all the experiments. Compounds were dissolved in dimethyl sulfoxide (DMSO) and kept under dark conditions at 25 °C. […] The cytotoxicity of the synthetic compounds was evaluated by colorimetric 3-(4,5-dimethyl-2-thiazolyl-)-2,5-diphenyl-2H-tetrazolium bromide (MTT) assay as previously described. Briefly, cells (5000 per well) were incubated with increasing concentrations of compounds for 72 h into a 96-well plate. Then, the supernatants were removed and 0.5 mg/mL MTT was added and incubated for 4 h at 37 °C. Sodium dodecyl sulfate (10% w/v) in 0.05 M HCl was added to solubilize the reaction products and the absorbance was measured at 570 nm with a reference wavelength of […] using an ELISA reader (Bio-Rad, Hercules, CA, USA). The IC50 values (concentrations inducing a 50% inhibition of cell viability) were determined graphically for each experiment by a nonlinear regression using the curve fitting routine implemented within the software Prism 5.0 (GraphPad, La Jolla, CA, USA).
# U-937/Bcl-2 cells = assay: MTT cytotoxicity assay, U-937/Bcl-2; type: cell-based, human; conditions: means ± SEM
# Source text: as §1
# HL-60 cells = assay: MTT cytotoxicity assay, HL-60; type: cell-based; conditions: Homo sapiens, HL-60, 72 h, means ± SEM
# Source text: as §1
SMILES,IC50 [1],caspase-8 activation [2],increase of caspase-3/7 and caspase-9 activities compared with control [2],IC50 (U-937 cells),"IC50 (U-937/Bcl-2 cells; Homo sapiens, U-937, 72 h)",IC50 (HL-60 cells),IC50 (U-937/Bcl-2 cells; 72 h)
Cc1ccc(S(=O)(=O)NC(=Nc2ccc(/C=C/C(=O)c3c(O)cccc3OCc3ccccc3)cc2)N2CCN(C)CC2)cc1 [Compound 6f],1.5 to 4.5 µM,less activated,approximately three-fold,1.6 ± 0.6 µM,2.2 ± 0.8 µM,1.6 ± 1 µM,–
O=C(/C=C/c1ccc(N=C(Nc2ccccc2)N2CCCCC2)cc1)c1c(O)cccc1OCc1ccccc1 [Compound 6i],–,less activated,two-fold,–,< 10 µM,–,5.1 ± 1.8 µM

# — PMC9779571, “Guanidine Derivatives Containing the Chalcone Skeleton Are Potent Antiproliferative Compounds against Human Leukemia Cells” (International Journal of Molecular Sciences, 2022)
